Test results as given in patent publication US5760036A, “Aminediol protease inhibitors” (E. R. Squibb & Sons, Inc., priority 1995, dated 1998).

Molecular target: T1, HIV protease (Human immunodeficiency virus type 1 group M subtype B, UniProt P04585)
T1 construct: and purified protease
Assay: HIV Protease Assay
Format: biochemical
Details: 10 μM inhibitor, 4% DMSO, 450 μM substrate, pH 5.5, 30 minutes at 37° C., RP-HPLC
Experimental: An HIV protease standard assay was performed in a 60 μl reaction medium containing 50 mM sodium acetate, pH 5.5, 100 μg/ml bovine serum albumen,450 μM substrate (H2 N-Val-Ser-Gln-Asn-(β-naphthyl-alanine)-Pro-Val-Ile-OH), and purified protease. The reaction medium was incubated for 30 minutes at 37° C., quenched by the addition of 140 μl 5% H3 PO4, then analyzed by reverse phase HPLC using UV220 detection. In a typical control assay, 7% of the substrate was hydrolyzed. Aminediol inhibitors of the present invention, listed in the following Table 1, were then employed in the assay, for which purpose they were prepared as a […] solution in DMSO, then diluted to 30 μM with 50 mM sodium acetate/bovine serum albumen. This working stock was then diluted three-fold into the protease reaction medium, for a final concentration of 10 μM inhibitor and 4% DMSO.

**Q.** How did the “HIV Protease % Inhibition at 10 μM” value turn out when `CC(C)(C)OC(=O)N[C@@H](Cc1ccccc1)[C@H](O)CNC[C@@H](O)[C@H](Cc1ccccc1)NC(=O)C1(O)COCC1(C)C` (single isomer, unassigned; isomer b) [Compound 365, [1S-[1R*,2S*(2S*,3R*)]]-[2-Hydroxy-3-[[tetrahydro-3-hydroxy-4,4-dimethyl-3-furanyl)carbonyl]amino]-4-phenylbutyl]amino]-l-(phenylmethyl)-propyl]carbamic acid, 1,1-dimethylethyl ester, Isomer B] was run?
**A.** The value was 72%.

**Q.** `COC(=O)NC(C)(C(=O)N[C@@H](Cc1ccccc1)[C@H](O)CNC[C@@H](O)[C@H](Cc1ccccc1)NC(=O)OC(C)(C)C)C(C)(C)C` (single isomer, unassigned; isomer b) [Compound 374, [1S-[1R*,2S*(2S*, 3R*)]]-[1-[[[3-[[3-[[(1,1-Dimethylethoxy)carbonyl]amino]-2-hydroxy-4-phenylbutyl]amino]-2-hydroxy-1-(phenylmethyl)propyl]amino]carbonyl]-1,2-dimethylpropyl]carbamic acid, methyl ester, isomer B] was tested. Which “HIV Protease % Inhibition at 10 μM” value did it give?
**A.** Its value is 28%.

**Q.** How did the “HIV Protease % Inhibition at 10 μM” value turn out when `CC(C)(C)OC(=O)N[C@@H](Cc1ccccc1)[C@H](O)CNC[C@@H](O)[C@H](Cc1ccccc1)NC(=O)C(CCO)C(C)(C)C` (single isomer, unassigned; isomer b) [Compound 313, [1S-[1R*, 2S* (2S*, 3R*)][-[3-[[3-[[2-(1,1-Dimethylethyl)-4-hydroxy-1-oxobutyl]amino]-2-hydroxy-4-phenylbutyl]amino]-2-hydroxy-1-(phenylmethyl)propyl]carbamic acid, 1,1-dimethylethyl ester, isomer B] was run?
**A.** The value was 65%.

**Q.** For `CC(C)(C)OC(=O)N[C@@H](Cc1ccccc1)[C@H](O)CNC[C@@H](O)[C@H](Cc1ccccc1)NC(=O)C(O)(CO)C(C)(C)C` (single isomer, unassigned; isomer b) [Compound 367, [1S-[1R*,2S*(2S*,3R*)]]-[3-[[3-[[2-Hydroxy-2-(hydroxymethyl)-3.3-dimethyl-l-oxobutyl]amino]-2-hydroxy-4-phenylbutyl]amino]-2-hydroxy-1-(phenylmethyl)propyl]carbamic acid. 1.1-dimethylethyl ester, isomer B], which “HIV Protease % Inhibition at 10 μM” value is on record?
**A.** The value was 50%.

Same assay, conditions: pH 5.5, 10 μM inhibitor, 4% DMSO, 450 μM substrate, pH 5.5, 30 minutes at 37° C., RP-HPLC; read-out: HIV Protease % Inhibition at 10 μM

**Q.** With `CC(C)[C@H](NC(=O)OCc1ccccc1)C(=O)N[C@@H](Cc1ccccc1)[C@@H](O)CNC[C@@H](O)[C@H](Cc1ccccc1)NC(=O)OC(C)(C)C` [Compound 115, [S-[1R*,2R*(2S*.3R*)]-N-[3-[[3-[[(1,1-Dimethylethoxy)carbonyl]amino]-2-hydroxy-4-phenylbutyl]amino]-2-hydroxy-1-phenylmethyl)propyl]-N^2-[(phenylmethoxy)-carbonyl]-L-valinamide] as the compound, how does the inhibition at 10 µM read?
**A.** Its inhibition at 10 µM is 58%.

**Q.** `CC(C)(C)OC(=O)N[C@@H](Cc1ccccc1)[C@H](O)CNC[C@@H](O)[C@H](Cc1ccccc1)NC(=O)[C@H](O)c1ccccc1` [Compound 377, [1S-[1R*,2S*[2S*, 3R*(S*)]]]-[3-[[3-[2-Hydroxy-1-oxo-2-phenylethyl)amino]-2-hydroxy-4-phenylbutyl]amino]-2-hydroxy-1-(phenylmethyl)propyl]carbamic acid, 1-dimethylethyl ester] was tested. Which inhibition at 10 µM did it give?
**A.** The inhibition at 10 µM was 95%.

**Q.** For `CC(C)(C)CS(=O)(=O)N[C@@H](Cc1ccccc1)[C@H](O)CNC[C@@H](O)[C@H](Cc1ccccc1)NC(=O)OC(C)(C)C` [Compound 181, [1S-[1R*,2S*(2S*,3R*)]]-[3-[[3-[[(2,2-Dimethy]propyl)sulfonyl]amino]-2-hydroxy-4-phenylbutyl]amino]-2-hydroxy-1-(phenylmethyl)propyl]carbamic acid 1,1-dimethylethyl ester], which inhibition at 10 µM is on record?
**A.** The inhibition at 10 µM was 46%.

**Q.** Which inhibition at 10 µM does the source give for `CC(C)(C)OC(=O)NCC(O)(CNC[C@@H](O)[C@H](Cc1ccccc1)NC(=O)OC(C)(C)C)Cc1ccccc1` (stereo partly drawn) [Compound 191, [1S-(1R*,2S*)]-[3-[[3-[[(1,1-Dimethylethoxy)carbonyl]amino]-2-hydroxy-2-(phenylmethyl)propyl]amino]-2-hydroxy-1-(phenylmethyl)propyl]carbamic acid, 1,1-dimethyl-ethyl ester] here?
**A.** Its inhibition at 10 µM is 13%.

**Q.** `CC(C)(C)OC(=O)N[C@@H](Cc1ccccc1)C(=O)CNC[C@@H](O)[C@H](Cc1ccccc1)NC(=O)OC(C)(C)C` [Compound 193, [1S-[1R*,2S*(3R*)]]-[3-[[3-[[(1,1-Dimethylethoxy)carbonyl]amino]-2-oxo-4-phenylbutyl]amino]-2-hydroxy-1-(phenylmethyl)propyl]carbamic acid, 1,1-dimethylethyl ester] was tested. Which inhibition at 10 µM did it give?
**A.** The inhibition at 10 µM was 66%.

**Q.** For `CC(C)(C)CCN[C@@H](Cc1ccccc1)[C@H](O)CNC[C@@H](O)[C@H](Cc1ccccc1)NC(=O)OC(C)(C)C` [Compound 127, [1S-[1R*,2S*(2S*,3R*)]]-[3-[[3-[(3,3-Dimethylbutyl)amino]-2-hydroxy-4-phenylbutyl]amino]-2-hydroxy-1-(phenylmethyl)propyl]carbamic acid, 1,1-dimethylethyl ester], which inhibition at 10 µM is on record?
**A.** The inhibition at 10 µM was 15%.

**Q.** How did the inhibition at 10 µM turn out when `CC(C)[C@H](N)C(=O)N[C@@H](Cc1ccccc1)[C@H](O)CNC[C@@H](O)[C@H](Cc1ccccc1)NC(=O)[C@@H](N)C(C)C` [Compound 43, [S-(1S*,2R*)]-N,N'-[Iminobis[2-hydroxy-1-(phenylmethyl)-3,1-propanediyl]]bis-L-valinamide] was run?
**A.** Its inhibition at 10 µM is 21%.

**Q.** For `CC(C)(C)OC(=O)N[C@@H](Cc1ccccc1)[C@H](O)CNC[C@@H](O)[C@H](Cc1ccccc1)NC(=O)[C@@H](NC(=O)OCc1ccccc1)c1ccccc1` [Compound 94, [1S-[1R* [1R*,2S* (2S*,3R*)]]]-[2-[[3-[[3-[[(1,1-Dimethylethoxy)carbonyl]amino]-2-hydroxy-4-phenylbutyl]amino]-2-hydroxy-1-(phenylmethyl)propyl]amino]-2-oxo-1-phenylethyl]carbamic acid, phenylmethyl ester], which inhibition at 10 µM is on record?
**A.** Its inhibition at 10 µM is 80 to 99%.

**Q.** How did the inhibition at 10 µM turn out when `CC(C)(C)OC(=O)N[C@@H](Cc1ccccc1)[C@H](O)CN[C@H](Cc1ccccc1)[C@@H](O)CNC(=O)OCc1ccccc1` [Compound 185, [2S-[2R*,3S*(2S*,3R*)]]-[3-[[3-[[(1,1-Dimethylethoxy)carbonyl]amino-2-hydroxy-4-phenylbutyl]amino-2-hydroxy-4-phenylbutyl]carbamnic acid, phenylmethyl ester] was run?
**A.** The inhibition at 10 µM was 5%.

**Q.** For `CC(C)(C)OC(=O)N[C@@H](Cc1ccccc1)[C@H](O)CNC[C@@H](O)[C@H](Cc1ccccc1)NC(=O)C(C)(C)CO` [Compound 279, [1S-[1R*,2S*(2S*,3R*)]]-[2-Hydroxy-3-[[2-hydroxy-3-[[2-(hydroxymethyl)-2-methyl-1-oxopropyl]amino]-4-phenylbutyl]amino]-1-(phenylmethyl)propyl]carbamic acid, 1,1-dimethylethyl ester], which inhibition at 10 µM is on record?
**A.** The inhibition at 10 µM was 54%.

**Q.** `CC(C)(C)OC(=O)N[C@@H](Cc1ccccc1)[C@H](O)CN[C@@H](Cc1ccccc1)C(O)CNC(=O)OCc1ccccc1` (stereo partly drawn) [Compound 186, [3S-[3R*,2(R*,S*) [2S*,3R*)]-3-[[3-(1,1-Dimethylethoxy)carbonyl]amino]-2-hydroxy-4-phenylbutyl]amino]-2-hydroxy-4-phenylbuty 1]carbamic acid, phenylmethyl ester] was tested. Which inhibition at 10 µM did it give?
**A.** Its inhibition at 10 µM is 0%.

**Q.** Which inhibition at 10 µM does the source give for `CC(C)(C)OC(=O)N[C@@H](Cc1ccccc1)[C@H](O)CN[C@H](Cc1ccccc1)[C@H](O)CNC(=O)OCc1ccccc1` [Compound 189, [2R-[2R*,3R*(2R*,3S*)]]-[3-[[3-[[(1,1-Dimethylethoxy)carbonyl]amino]-2-hydroxy-4-phenylbutyl]amino]-2-hydroxy-4-phenylbutyl]-carbamic acid, phenylmethyl ester] here?
**A.** Its inhibition at 10 µM is 23%.

**Q.** How did the inhibition at 10 µM turn out when `CC(C)(C)OC(=O)N[C@@H](Cc1ccccc1)[C@H](O)CNC[C@@H](O)[C@H](Cc1ccccc1)NC(=O)OC[C@H](O)CO` [Compound 231, [1S-(1R*,2S*),(S*)]-[Iminobis[2-hydroxy-1-(phenylmethyl)-3,1-propanediyl]]biscarbamic acid, 2,3-dihydroxypropyl 1,1-dimethylethyl ester] was run?
**A.** The inhibition at 10 µM was 83%.

**Q.** For `CC(C)(C)OC(=O)N[C@@H](Cc1ccccc1)[C@H](O)CNC[C@@H](O)[C@H](Cc1ccccc1)N[S+]([O-])C(C)(C)C` (stereo partly drawn) [Compound 182, [1S-[1R*,2S*(2S*,3R*)]]-[3-[[(1,1-Dimethylethyl)-sulfinyl]amino-2-hydroxy-4-phenylbutyl]amino]2-hydroxy-1-(phenylmethyl)propyl]carbamic acid, 1,1-dimethylethyl ester], which inhibition at 10 µM is on record?
**A.** The inhibition at 10 µM was 41%.

**Q.** For `CC(C)(C)OC(=O)N[C@@H](Cc1ccccc1)[C@H](O)CNC[C@@H](O)[C@H](Cc1ccccc1)NC(=O)C(OCc1ccccc1)C(C)(C)C` (stereo partly drawn) [Compound 106, [1S-[1R*,2S* (2S*,3R*)]]-3-[[3-[[3,3-Dimethyl-1-oxo-2-(phenylmethoxy)butyl)butyl]amino]-2-hydroxy-4-phenylbutyl]amino]-2-hydroxy-1-(phenyl-methyl)propyl]carbamic acid, 1,1-dimethylethyl ester], which inhibition at 10 µM is on record?
**A.** Its inhibition at 10 µM is 71%.

**Q.** `O=C(Cc1ccccc1)N[C@@H](Cc1ccccc1)[C@H](O)CNC[C@@H](O)[C@H](Cc1ccccc1)NC(=O)Cc1ccccc1` [Compound 83, [R-(R*,S*)]-N,N'-[Iminobis[2-hydroxy-1-(phenylmethyl)-3,1-propanediyl[bisbenzeneacetamide] was tested. Which inhibition at 10 µM did it give?
**A.** Its inhibition at 10 µM is 19%.
